Measured values published in patent US8158142B2, “3-deazaadenosine prevents atherosclerosis and graft vasculopathy” (Kerckhoff-Klinik Gesellschaft mit beschrankter Haftung, priority 1998, dated 2012).

Key:
female C57BL/J6 mice = experiment: Quantification of atherosclerotic lesions and neointimal proliferation in the ascending aorta of mice on atherogenic diet; format: in vivo, mouse; conditions: for NI/M Ratio (neointimal to medial area ratio): mean ± SEM, 3 sections per animal
Text: (§1) Six to eight week old female C57BL/J6 mice (Charles Rivers Wiga, Sulzfeld, Germany) with an average body weight of 20 g were randomly divided into three groups:
Group 1: control animals (n=9) maintained on a normal mouse diet (Altromin, Standard Diet; Lage, Germany).
Group 2: nine animals receiving an atherogenic diet based on normal mouse chow but differing in total fat content (10% vs. 5%), protein content (15.4% vs. 22%) and cholesterol content (1% vs. 0%). The total energy was 3790 vs. 3000 kcal/kg.
Group 3: nine animals on an atherogenic diet as described above, and 3-deazaadenosine (c^3Ado) (Southern Research, Birmingham, Ala., USA) mixed into the food at a final concentration of 0.04 mg/g, according to a daily oral dose of 10 mg/kg c^3Ado per animal.
(§2) The average intake of food for each animal was 5.2 g per day. Food and water were replenished every 2 days, and the volumes consumed for each cage were recorded. The mice were kept in accordance with standard animal care requirements and were maintained on a 12 hour light-dark cycle with autoclaved water in a temperature-controlled environment. All animals remained healthy during the experimental period. After 9 weeks, mice were sacrificed by inhalation of trichlormethane. The heart and the ascending aorta were removed and rinsed with PBS DULBECCO'S (Life Technologies, Paisley, Scotland). The lower half of the heart was transected along a line between the tips of the atria to obtain a base for the emerging ascending aorta. This procedure allowed an exact vertical embedding of the aorta in Tissue-Tek (Miles, USA) for optimal plane cross sections. The sections were frozen in liquid nitrogen and stored at −80° C. until further study.
A modification of the method described by Paigen at el. (29) was used to evaluate aortic lesion formation. The frozen tissue blocks were placed on a cryotome, and 8 μm serial sections of the ascending aorta were collected on coated glass slides until we were able to locate the most cranial portion of the aortic sinus by examining unstained sections. Once this section (No.1) was identified, the cranial 35 sections, covering 280 μm of the ascending aorta, were placed on separate slides for further evaluation. Every fifth section of the first 280 μm of the ascending aorta was stained with oil red O (Riedel de Haen, Germany) and counterstained with hemalaun (Merck, Darmstadt, Germany) end elastic van Gieson (Chrome-Gesellsohaft, Schmid GmbH, Köngen, Germany). Lesion area as well as intimal and medial area were blindly determined using a video-computer aided microscopy planimetry system (Zeiss, Oberkochen, Germany; Video Camera 3 CCD,
Sony; 40× lens magnification; IBAS-2 with IBAS Version 2.0 Standard, Kontron, München, Germany).
The number of lesions was counted as described previously by reviewing every fifth section. […] The number of lesions in each cross section was also counted. Size of the lesions was determined as length of lesion along the luminal aortic perimeter which was related to the total luminal aortic perimeter in the section.
The extent of neointimal proliferation was quantified by measuring the area (μm^2) of the neointima and the media in each ascending aorta from 3 sections (No.10, 20 and 30). In each section four sectors (at 0°, 90°; 180° and 270°) of the vessel wall were analyzed in a defined window of 63 μm×63 μm to measure neointimal area enclosed by the endothelial layer and internal elastic lamina and external elastic lamina. Ratio of neointimal to medial are ratio (NI/M) was averaged for each animal.

VCAM-1 [1] = experiment: Immunohistochemical staining of VCAM-1 in ascending aorta (APAAP method); format: in vivo, mouse; conditions: for Endothelial expression of VCAM-1 in the aorta (words): mice on atherogenic diet treated with c^3Ado, FIG. 4
Procedure: (§3) Serial cryostate sections (8 μm) from the following 3 parts of the ascending aorta were chosen: 8-32 μm, 120-144 μm and 240-264 μm distal to the aortic sinus. The frozen sections were fixed in ice-cold acetone and dried for 10 minutes. Sections were then incubated for 10 minutes in a 1:1000 dilution of mouse serum (Sigma, St. Louis, Mo., USA). After rinsing with RPMI 1640 (Life Technologies, Paisley, Scotland), the sections were incubated for 40 minutes at room temperature with a 1:100 dilution of a monoclonal rat anti-mouse antibody against ICAM-1 (CF54) or VCAM-1 (CD106, Dianova GmbH, Hamburg, Germany). Detection of monocytes/macropheges was performed using monoclonal rat anti-mouse antibody CD11 b (MAC-1) (Serotec Ltd., Oxford, England).
(§4) After additional washing steps with TRIS buffer (USB, Cleveland, Ohio, USA) and incubation with a secondary antibody (AffiniPureMouse anti-ret IgG, Dianova, Germany) (1:400) for 10 minutes, followed by incubation with a linking antibody (Dualsystem-Brückenantikörper; Dianova, Hamburg, Germany) (1:600) for 10 minutes, the sections were incubated with an alkaline phosphatase anti-alkaline phosphatese complex (APAPP) (1:50; Dianova, Hamburg, Germany) for 30 minutes. The development of the sections was performed in neufuchsin developer solution. Sections were finally counterstained with hemalaun (Merck, Darmstadt, Germany) for 10 seconds. Control sections were treated with linking secondary antibody and APAAP complex only.
(§5) The intensity of staining with ICAM-1 and VCAM-1 was scored from 1 to 4 as follows: score 1=no staining, score 2=weak staining, score 3=moderate staining and score 4=strong staining of the vascular cells. The number of CD11b-positive cells was counted in each section, and the localization of the cells was classified as adherent to the wall, or localized in the intima or in the media.

ICAM-1 [2] = experiment: Immunohistochemical staining of ICAM-1 in ascending aorta (APAAP method); format: in vivo, mouse; conditions: for Endothelial expression of ICAM-1 in the aorta (words): mice on atherogenic diet treated with c^3Ado, FIG. 4
Procedure: as §3, §4, §5

CD11b-positive monocytes = experiment: Counting of CD11b-positive monocytes in aortic sections; format: in vivo, mouse
Procedure: as §3, §4, §5

[3] = Total plasma cholesterol levels (CHOD-PAP method); format: in vivo, mouse; conditions: atherogenic diet + c^3Ado 10 mg/kg/day oral, mean ± SEM
Procedure: Blood was collected via the tail vein from all mice after overnight fasting prior to initiation of the experiment, after 35 days feeding the different diets, and at time of death. Total plasma cholesterol levels were determined using the CHOD-PAP method (Boehringer Mannheim, Germany) as described previously (32).

Body weight development = format: in vivo, mouse; conditions: day 65, atherogenic diet + c^3Ado 10 mg/kg/day oral, mean ± SEM, n = 9
Procedure: as §1, §2

[4] = test system: Lewis rats which received heterotopically transplanted hearts from Fisher rats; experiment: Heterotopic heart allograft survival and rejection (Fisher to Lewis rats); format: in vivo, rat
Procedure: (§6) 3-Deazaadenosine was orally administered by mixing into the regular food at a final concentration of 0.04 mg/g, according to a daily oral dose of 10 mg/kg c3Ado per animal, in addition to or in absence of cyclosporine (0.2 mg/kg body weight) to Lewis rats which received heterotopically transplanted hearts from Fisher rats. For a third control group, only cyclosporine was administered daily to the other allograft recipients. All animals got a standard diet over the whole study period. Allografts were harvested on day 120, cardiac graft beat was assessed by daily palpation, and the complete cessation of the graft beat was interpreted as rejection.

[5] = test system: Lewis rats which received heterotopically transplanted hearts from Fisher rats; experiment: Graft vasculopathy / graft atherosclerosis (intimal thickening) in transplanted hearts; format: in vivo, rat; conditions: after 120 days
Procedure: as §6, with “rejection. […]” for “rejection.”
Every complete cross-section of the traceable arteries was calculated. The sections were reviewed by two independent reviewers masked to the status of the slides, and histologic changes were assessed semiquantitatively. The changes of intimal thickening were scored as mild (score 1, <25% occlusion of the lumen) when the intima was readily discernible, or as moderate (score 2, 25-50% occlusion) to severe (score 3, >50% occlusion).

ICAM-1 [6] = experiment: Immunohistochemical analysis of ICAM-1 in transplanted hearts; format: in vivo, rat; conditions: heart allograft, day 120
Procedure: as §6, with “rejection. […]” for “rejection.”
(§7) For immunohistochemical analysis of VCAM-1 and ICAM-1. two complete transverse sections of the transplanted heart approximately 3 mm in thickness were obtained and stored in optimum cutting temperature compound. Serial sections were cut and dipped in cold acetone for 10 minutes. The staining procedures were performed as described previously. The expression of the adhesion molecules was scored on the basis of endothelial cells and smooth muscle cells of epicardial arteries and intramyocardial aterioles. Analysis was done semiquantitatively by scoring the intensity of the staining and counting of the number of stained cells.

VCAM-1 [7] = experiment: Immunohistochemical analysis of VCAM-1 in transplanted hearts; format: in vivo, rat; conditions: heart allograft, day 120
Procedure: as §6, with “rejection. […]” for “rejection.”
as §7

monocyte = conditions: cited from earlier work
endothelial cells = conditions: in vitro, via selective inhibition of ICAM-1 synthesis; cited from earlier work
[8] = biological target: adenosylhomocysteine hydrolase (Homo sapiens, UniProt P23526); conditions: cited from earlier work
Sequence of adenosylhomocysteine hydrolase (P23526 whole entry): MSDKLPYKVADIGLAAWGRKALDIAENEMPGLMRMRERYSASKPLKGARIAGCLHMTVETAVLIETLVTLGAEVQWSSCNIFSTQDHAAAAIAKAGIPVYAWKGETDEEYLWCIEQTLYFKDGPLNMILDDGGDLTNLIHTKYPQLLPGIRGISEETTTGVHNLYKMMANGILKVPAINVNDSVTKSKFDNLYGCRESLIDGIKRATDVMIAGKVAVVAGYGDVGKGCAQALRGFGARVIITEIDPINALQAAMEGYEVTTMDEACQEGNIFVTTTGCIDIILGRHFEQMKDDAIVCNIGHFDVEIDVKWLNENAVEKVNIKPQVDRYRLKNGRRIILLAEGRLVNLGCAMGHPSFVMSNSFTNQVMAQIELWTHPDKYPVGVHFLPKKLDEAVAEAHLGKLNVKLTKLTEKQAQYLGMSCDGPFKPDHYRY

[9] = mean ± SEM out of 3 sections per animal, 9 weeks atherogenic diet + c^3Ado
[10] = score 1 = no staining to 4 = strong staining, endothelial, ascending aorta, 9 weeks, mean ± SEM
[11] = group 3, atherogenic diet + c^3Ado

With `Nc1nccc2c1ncn2[C@@H]1O[C@H](CO)[C@@H](O)[C@H]1O` [c^3Ado, 3-deazaadenosine] the Number of lesions (female C57BL/J6 mice; fatty streak lesions, mean ± SEM from 7 sections per animal) was 0 ± 0, the “Neointima in aortic cross sections” value (female C57BL/J6 mice; light micrographs, 200 μm cranial to aortic valve, FIG. 3) was “absent” and the “Medial Area” value (female C57BL/J6 mice; [9]) was 62.7 ± 2.5 × × 10^3 μm^2. The “Neointimal area” value (female C57BL/J6 mice; [9]) was 0.13 ± 0.03 × × 10^3 μm^2, the “NI/M Ratio (neointimal to medial area ratio)” value (female C57BL/J6 mice; 9 weeks atherogenic diet + c^3Ado) was 0.002 ± 0.0004 and the “NI/M Ratio (neointimal to medial area ratio)” value (female C57BL/J6 mice; 9 weeks atherogenic diet + c^3Ado, listed as c^aAdo) was 0.002±0.0004. The “Fatty streak lesions in sections of the ascending aorta” value (female C57BL/J6 mice; oil red O staining, 7 frozen sections per animal) was “no detectable lesions”, the “Neointimal area” value (female C57BL/J6 mice; proximal ascending aorta, planimetric analysis, atherogenic diet + c^3Ado, p<0.001) was 125±32 μm^2 and the “Neointimal thickness as NI/M, lower than in mice on atherogenic diet without c^3Ado” value (female C57BL/J6 mice; vs atherogenic diet alone, p<0.001) was 94%. The “Endothelial expression of VCAM-1 in the aorta (words)” value (VCAM-1 [1]) was “completely absent”, the “Endothelial expression of VCAM-1 in the aorta (words)” value (VCAM-1 [1]; listed as 3-deazaadenosine) was “no endothelial expression” and the VCAM-1 expression score (VCAM-1 [1]; [10]) was 1.0 ± 0. The “Endothelial expression of ICAM-1 in the aorta (words)” value (ICAM-1 [2]) was “completely absent”, the “Endothelial expression of ICAM-1 in the aorta (words)” value (ICAM-1 [2]; listed as 3-deazaadenosine) was “no endothelial expression” and the ICAM-1 expression score (ICAM-1 [2]; [10]) was 1.0 ± 0. The “Adherent CD11b-positive cells on the luminal surface” value (CD11b-positive monocytes; [11]) was “only a few adherent CD11b-positive cells”, the “CD11b-positive monocytic cells within the intima” value (CD11b-positive monocytes; [11]) was “no monocytic cells within the intima” and the “Amount of intimal monocytes (first column of this head)” value (CD11b-positive monocytes; mean ± SEM per section, 3 defined sections per animal, first of two columns with the same head (title: endothelial monocytes)) was 0.5 ± 0.2. For the same compound, the “Amount of intimal monocytes (second column of this head)” value (CD11b-positive monocytes; mean ± SEM per section, 3 defined sections per animal, second of two columns with the same head) was 0 ± 0, the “Total cholesterol day 35” value ([3]; day 35, plasma) was 410 ± 19 mg/dL and the “Total cholesterol day 65” value ([3]; day 65, plasma) was 475 ± 10 mg/dL. For the same compound, the “Body weight day 65” value (Body weight development) was 25.3 ± 0.2 g, the “Complications as a result of therapy” value ([4]; 10 mg/kg/day oral, 120 days) was “No complications” and the “Graft survival (graft beat)” value ([4]; daily palpation, observation 120 days) was “kept beating for the duration of observation”. For the same compound, the Graft rejection ([4]; heart allograft, 120 days) was “completely free from rejection”, the “Intimal thickening of intramyocardial and epicardial arteries” value [5] was “almost no arterial intimal thickening” and the “ICAM-1 expression in the neointima of transplanted hearts” value (ICAM-1 [6]) was “almost no expression”. For the same compound, the “VCAM-1 expression in the neointima of transplanted hearts” value (VCAM-1 [7]) was “almost no expression”, the “Monocyte chemotaxis and phagocytosis” value (monocyte) was “inhibit” and the “Tumor necrosis factor-a-induced macrophage adhesion to endothelial cells” value (endothelial cells) was “reduces”. For the same compound, the “Effect on adenosylhomocysteine hydrolase” value [8] was “suppresses”.
